Measurements taken from US20260070918A1, “HETEROBICYCLIC COMPOUNDS AS EP4 RECEPTOR ANTAGONISTS” (priority 2022, published 2026).

What was measured:
EP4 receptor = EP4 receptor (Homo sapiens (Human), UniProt P35408); assay: EP4 receptor binding assay (inhibition of [3H]PGE2 binding); details: human recombinant Chem-1 cells, 1 nM [3H]PGE2, 2 hours @25° C.
Procedure: Transfected HEK 293(ebna) cells are maintained in culture and harvested, and membranes are prepared by differential centrifugation, following lysis of the cells in the presence of protease inhibitors, for use in receptor binding assays. Prostanoid receptor binding assays (for DP1, DP2 (CRTH2), EP1, EP2, EP3-III, EP4, FP, IP, and TP) are performed in 10 mM MES/KOH (pH 6.0) (EPs, FP and TP) or 10 mM HEPES/KOH (pH 7.4) (DPs and IP), containing 1 mM EDTA, 2.5-30 mM divalent cation and the appropriate radioligand that specifically binds to a target prostanoid receptor. Synthetic compounds are added in dimethyl sulfoxide which is kept constant at 1% (v/v) in all incubations. The reaction is initiated by addition of membrane protein. Non-specific binding is determined in the presence of 10 μM of the corresponding non-radioactive prostanoid. Incubations are conducted for 60-90 min at room temperature or 30° C. and terminated by rapid filtration. Compound binding is calculated as a % inhibition of the binding of the radioligand after subtracting nonspecific binding from total binding. The residual specific binding at each ligand concentration is calculated and expressed as a function of ligand concentration to construct sigmoidal concentration-response curve. Half maximal inhibitory concentration, IC50 values of compounds are determined by nonlinear regression analysis of the concentration-response curves using Hill equation curve fitting equation Y=D+[(A−D)/(1+C/IC50)^H], where Y=specific binding, A=left asymptote of the curve, D=right asymptote of the curve, C=compound concentration, and H=slope factor. The binding affinity of the compounds is determined by calculating the equilibrium inhibition constant (Ki) from the equation Ki═InPt/1+[radioligand]/Kd where Kd is the equilibrium dissociation constant for the radioligand: receptor interaction and InPt is the inflection point of the dose-response curves.
EP4 receptor binding assays were performed at MSD Pharma Service in Taiwan under the following assay conditions: • Source: Human recombinant Chem-1 cells • Ligand: 1 nM [^3H]

[1] = Liver microsomal stability, human; assay type: in vitro ADME; details: pooled human liver microsomes; for microsomal CLint: read-out: In vitro CLint; for half-life: read-out: In vitro T1/2; for CLint scaled: read-out: Scale-up CLint
Procedure: (§1) Microsomal stability assay is performed to understand the metabolism of the representative compounds.
(§2) In vitro microsomal stability was determined in pooled human, dog, rat, and mouse liver microsomes. Test compounds (Table 2) were incubated in the presence and absence of NADPH for 0-60 min and the amount of remaining compound was quantified through LC-MS/MS analysis.

[2] = Liver microsomal stability, dog; assay type: in vitro ADME; details: pooled dog liver microsomes; for microsomal CLint: read-out: In vitro CLint; for half-life: read-out: In vitro T1/2; for CLint scaled: read-out: Scale-up CLint
Procedure: as §1, §2

[3] = Liver microsomal stability, rat; assay type: in vitro ADME; details: pooled rat liver microsomes; for microsomal CLint: read-out: In vitro CLint; for half-life: read-out: In vitro T1/2; for CLint scaled: read-out: Scale-up CLint
Procedure: as §1, §2

[4] = Liver microsomal stability, mouse; assay type: in vitro ADME; details: pooled mouse liver microsomes; for microsomal CLint: read-out: In vitro CLint; for half-life: read-out: In vitro T1/2; for CLint scaled: read-out: Scale-up CLint
Procedure: as §1, §2

[5] = Rat pharmacokinetic (PK) assay; assay type: in vivo, Sprague-Dawley rat
Procedure: Test compound was dissolved in 10% DMSO, 40% PEG-400, and 50% water for intravenous (i.v.) and oral (p.o.) administration to rat. […] Three male animals received single p.o. doses by gavage tube (5 mg/kg). Blood samples were collected into K2-EDTA tubes from the jugular vein at 0.083, 0.25, 0.5, 1, 2, 4, 8, and 24 h post dosing. After centrifugation, plasma samples were prepared via protein precipitation and detected through LC-MS/MS. The pharmacokinetics parameters were calculated using Phoenix software V 8.3.4.

[6] = male, Sprague-Dawley, plasma, Rat iv, dose 5 mg/kg (table)
[7] = male, Sprague-Dawley, plasma, Rat po, dose 10 mg/kg (table)

EP4 receptor, sequence (P35408 whole entry): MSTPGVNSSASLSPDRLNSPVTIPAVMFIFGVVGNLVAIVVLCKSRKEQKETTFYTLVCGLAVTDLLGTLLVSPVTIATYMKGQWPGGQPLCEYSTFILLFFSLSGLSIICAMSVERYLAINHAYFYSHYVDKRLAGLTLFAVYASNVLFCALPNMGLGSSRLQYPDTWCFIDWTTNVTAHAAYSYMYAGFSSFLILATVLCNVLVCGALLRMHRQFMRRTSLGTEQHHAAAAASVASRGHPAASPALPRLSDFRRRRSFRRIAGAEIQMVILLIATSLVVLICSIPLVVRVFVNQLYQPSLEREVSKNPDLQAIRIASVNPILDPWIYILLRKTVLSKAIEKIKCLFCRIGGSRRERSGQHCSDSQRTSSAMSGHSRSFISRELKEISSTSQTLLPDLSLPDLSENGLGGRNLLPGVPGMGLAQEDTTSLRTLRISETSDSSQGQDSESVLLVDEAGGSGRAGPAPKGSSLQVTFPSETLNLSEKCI

Compound “3-[1-[[2-methyl-4-[[4-(trifluoromethyl)phenyl]methyl]thieno[3,2-b]pyrrole-3-carbonyl]amino]ethyl]bicyclo[1.1.1]pentane-1-carboxylic acid [Example 10]” has an IC50 (EP4 receptor) of 620 nM.

In the case of `O=C(O)c1ccc(C2(NC(=O)c3c(Cl)sc4ccn(Cc5ccc(C(F)(F)F)cc5)c34)CC2)cc1` [Example 1, 4-[1-[[2-chloro-4-[[4-(trifluoromethyl)phenyl]methyl]thieno[3,2-b]pyrrole-3-carbonyl]amino]cyclopropyl]benzoic acid], the IC50 (EP4 receptor) is reported as 0.25 nM, the microsomal CLint [1] is reported as 11.4 µL/min/mg and the half-life [1] is reported as 2.03 h. For the same compound, the CLint scaled [1] was 14.3 mL/min/kg, the microsomal CLint [2] was 9.89 µL/min/mg and the half-life [2] was 2.33 h. It also gave a CLint scaled [2] of 24.6 mL/min/kg, a microsomal CLint [3] of 13.4 µL/min/mg and a half-life [3] of 1.73 h. For the same compound, the CLint scaled [3] was 24 mL/min/kg, the microsomal CLint [4] was 15 µL/min/mg and the half-life [4] was 1.54 h. It also gave a CLint scaled [4] of 66.1 mL/min/kg, a CL_obs ([5]; Rat iv, dose 5 mg/kg (table)) of 2.57 mL/min/kg and a Vss_obs ([5]; Rat iv, dose 5 mg/kg (table)) of 1.64 L/kg. It also gave an AUC(0-inf) [5, 6] of 33600 ng·h/mL, an AUC(0-t) [5, 6] of 27700 ng·h/mL and a C0 [5, 6] of 8380 ng/mL. For the same compound, the MRT [5, 6] was 5.93 h, the half-life [5, 6] was 9.47 h and the AUC(0-inf) [5, 7] was 26700 ng·h/mL. The AUC(0-t) [5, 7] was 23400 ng·h/mL, the Cmax [5, 7] was 1830 ng/mL and the MRT [5, 7] was 7.98 h. It also gave a Tmax [5, 7] of 6.67 h, a half-life [5, 7] of 8.97 h and a bioavailability ([5]; male, Sprague-Dawley, plasma, Rat po, dose 10 mg/kg vs iv 5 mg/kg (table)) of 42.3%.

Compound `O=C(O)c1ccc(C2(NC(=O)c3c(CO)sc4ccn(Cc5ccc(C(F)(F)F)cc5)c34)CC2)cc1` [Example 2, 4-[1-[[2-(hydroxymethyl)-4-[[4-(trifluoromethyl)phenyl]methyl]thieno[3,2-b]pyrrole-3-carbonyl]amino]cyclopropyl]benzoic acid] has an IC50 (EP4 receptor) of 1.1 nM.

Compound `O=C(O)c1ccc(C2(NC(=O)c3c(F)sc4ccn(Cc5ccc(C(F)(F)F)cc5)c34)CC2)cc1` [Example 3, 4-(1-(2-fluoro-4-(4-(trifluoromethyl)benzyl)-4H-thieno[3,2-b]pyrrole-3-carboxamido)cyclopropyl)benzoic acid] has an IC50 (EP4 receptor) of 0.48 nM, a microsomal CLint [1] of 4.03 µL/min/mg and a half-life [1] of 5.73 h. For the same compound, the CLint scaled [1] was 5.05 mL/min/kg, the microsomal CLint [2] was 3.2 µL/min/mg and the half-life [2] was 7.23 h. The CLint scaled [2] was 7.97 mL/min/kg, the microsomal CLint [3] was 8.4 µL/min/mg and the half-life [3] was 2.75 h. The CLint scaled [3] was 15 mL/min/kg, the microsomal CLint [4] was 6.85 µL/min/mg and the half-life [4] was 3.37 h. The CLint scaled [4] was 30.1 mL/min/kg.

Work on `COc1sc2ccn(Cc3ccc(C(F)(F)F)cc3)c2c1C(=O)NC1(c2ccc(C(=O)O)cc2)CC1` [Example 4, 4-(1-(2-methoxy-4-(4-(trifluoromethyl)benzyl)-4H-thieno[3,2-b]pyrrole-3-carboxamido)cyclopropyl)benzoic acid] yielded an IC50 (EP4 receptor) of 0.35 nM, a microsomal CLint [1] of 3.24 µL/min/mg and a half-life [1] of 7.13 h. It also gave a CLint scaled [1] of 4.06 mL/min/kg, a microsomal CLint [2] of 6.06 µL/min/mg and a half-life [2] of 3.82 h. For the same compound, the CLint scaled [2] was 15.1 mL/min/kg, the microsomal CLint [3] was 11.1 µL/min/mg and the half-life [3] was 2.08 h. It also gave a CLint scaled [3] of 19.8 mL/min/kg, a microsomal CLint [4] of 10.6 µL/min/mg and a half-life [4] of 2.18 h. For the same compound, the CLint scaled [4] was 46.7 mL/min/kg.

`O=C(NC1(C23CC(C(=O)O)(C2)C3)CC1)c1c(Cl)sc2ccn(Cc3ccc(C(F)(F)F)cc3)c12` [Example 5, 3-[1-[[2-chloro-4-[[4-(trifluoromethyl)phenyl]methyl]thieno[3,2-b]pyrrole-3-carbonyl]amino]cyclopropyl]bicyclo[1.1.1]pentane-1-carboxylic acid] gave an IC50 (EP4 receptor) of 28 nM.

`O=C(NC1(C23CCC(C(=O)O)(CC2)CC3)CC1)c1c(Cl)sc2ccn(Cc3ccc(C(F)(F)F)cc3)c12` [Example 6, 4-[1-[[2-chloro-4-[[4-(trifluoromethyl)phenyl]methyl]thieno[3,2-b]pyrrole-3-carbonyl]amino]cyclopropyl]bicyclo[2.2.2]octane-1-carboxylic acid] gave an IC50 (EP4 receptor) of 8.4 nM.

Work on `Cc1sc2ccn(Cc3ccc(C(F)(F)F)cc3)c2c1C(=O)NC1(C23CC(C(=O)O)(C2)C3)CC1` [Example 7, 3-[1-[[2-methyl-4-[[4-(trifluoromethyl)phenyl]methyl]thieno[3,2-b]pyrrole-3-carbonyl]amino]cyclopropyl]bicyclo[1.1.1]pentane-1-carboxylic acid] yielded an IC50 (EP4 receptor) of 50 nM.

With `Cc1sc2ccn(Cc3ccc(C(F)(F)F)cc3)c2c1C(=O)NC1(C23CCC(C(=O)O)(CC2)CC3)CC1` [Example 8, 4-[1-[[2-methyl-4-[[4-(trifluoromethyl)phenyl]methyl]thieno[3,2-b]pyrrole-3-carbonyl]amino]cyclopropyl]bicyclo[2.2.2]octane-1-carboxylic acid] the IC50 (EP4 receptor) was 4.9 nM.

Compound `CC(NC(=O)c1c(Cl)sc2ccn(Cc3ccc(C(F)(F)F)cc3)c12)C12CC(C(=O)O)(C1)C2` (stereo not shown) [Example 9, 3-[1-[[2-chloro-4-[[4-(trifluoromethyl)phenyl]methyl]thieno[3,2-b]pyrrole-3-carbonyl]amino]ethyl]bicyclo[1.1.1]pentane-1-carboxylic acid] has an IC50 (EP4 receptor) of 180 nM.

With `O=C(O)c1ccc(C2(NC(=O)c3c(C(F)(F)F)sc4ccn(Cc5ccc(C(F)(F)F)cc5)c34)CC2)cc1` [Example 11, 4-(1-(2-(trifluoromethyl)-4-(4-(trifluoromethyl)benzyl)-4H-thieno[3,2-b]pyrrole-3-carboxamido)cyclopropyl)benzoic acid] the IC50 (EP4 receptor) was 1.2 nM.
